Test [1] deals with RAR and RXR receptors. The experiment in a line: Co-transfection assay, RAR and RXR subfamilies (summary in words). The test is classed as cell-based. The following applies: CV-1 cells. The procedure:
Utilizing the "cis-trans" or "co-transfection" assay described by Evans et al., Science, 240:889-95 (May 13, 1988), the disclosure of which is herein incorporated by reference, the retinoid compounds of the present invention were tested and found to have strong, specific activity as either selective RXR agonists, or as pan-agonist activators of both RAR and RXR receptors. This assay is described in further detail in U.S. Pat. Nos. 4,981,784 and 5,071,773, the disclosures of which are incorporated herein by reference.
In the co-transfection assay, a cloned cDNA for an IR (e.g., human RARα, RARβ, RXRγ) under the control of a constitutive promoter (e.g., the SV 40 promoter) is introduced by transfection (a procedure to induce cells to take up foreign genes) into a background cell substantially devoid of endogenous IRs. This introduced gene directs the recipient cells to make the IR protein of interest. A second gene is also introduced (co-transfected) into the same cells in conjunction with the IR gene. This second gene, comprising the cDNA for a reporter protein, such as firefly luciferase (LUC), controlled by an appropriate hormone responsive promoter containing a hormone response element (HRE). This reporter plasmid functions as a reporter for the transcription-modulating activity of the target IR. Thus, the reporter acts as a surrogate for the products (mRNA then protein) normally expressed by a gene under control of the target receptor and its native hormone.
The co-transfection assay can detect small molecule agonists or antagonists of target IRs. Exposing the transfected cells to an agonist ligand compound increases reporter activity in the transfected cells. This activity can be conveniently measured, e.g., by increasing luciferase production, which reflects compound-dependent, IR-mediated increases in reporter transcription. […]. Increasing concentrations of a suspected antagonist will decrease the reporter signal (e.g., luciferase production). The co-transfection assay is therefore useful to detect both agonists and antagonists of specific IRs. […]

Test [2] has as its target T1, RARγ (Homo sapiens, UniProt P13631).
T1 sequence (P13631 1-454): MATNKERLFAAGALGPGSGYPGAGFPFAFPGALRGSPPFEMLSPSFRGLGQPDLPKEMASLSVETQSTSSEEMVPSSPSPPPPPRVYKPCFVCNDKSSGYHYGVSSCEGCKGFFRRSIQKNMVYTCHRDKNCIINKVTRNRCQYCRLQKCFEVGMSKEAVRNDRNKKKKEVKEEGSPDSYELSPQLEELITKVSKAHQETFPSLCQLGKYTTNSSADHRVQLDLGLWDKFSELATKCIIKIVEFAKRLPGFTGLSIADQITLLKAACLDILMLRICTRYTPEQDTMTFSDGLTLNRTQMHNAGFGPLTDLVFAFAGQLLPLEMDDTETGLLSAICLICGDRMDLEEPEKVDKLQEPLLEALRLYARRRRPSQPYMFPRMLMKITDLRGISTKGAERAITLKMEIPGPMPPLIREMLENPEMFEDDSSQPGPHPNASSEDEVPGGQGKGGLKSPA
The experiment in a line: Receptor binding, RARγ. The note with it: tritiated retinoid competition.

Test [3] concerns the target T2, RXRγ (Mus musculus, UniProt P28705).
T2 construct: expressed in transfected cells; host or cells: CV-1 (African green monkey kidney fibroblasts)
T2 sequence (P28705 1-463): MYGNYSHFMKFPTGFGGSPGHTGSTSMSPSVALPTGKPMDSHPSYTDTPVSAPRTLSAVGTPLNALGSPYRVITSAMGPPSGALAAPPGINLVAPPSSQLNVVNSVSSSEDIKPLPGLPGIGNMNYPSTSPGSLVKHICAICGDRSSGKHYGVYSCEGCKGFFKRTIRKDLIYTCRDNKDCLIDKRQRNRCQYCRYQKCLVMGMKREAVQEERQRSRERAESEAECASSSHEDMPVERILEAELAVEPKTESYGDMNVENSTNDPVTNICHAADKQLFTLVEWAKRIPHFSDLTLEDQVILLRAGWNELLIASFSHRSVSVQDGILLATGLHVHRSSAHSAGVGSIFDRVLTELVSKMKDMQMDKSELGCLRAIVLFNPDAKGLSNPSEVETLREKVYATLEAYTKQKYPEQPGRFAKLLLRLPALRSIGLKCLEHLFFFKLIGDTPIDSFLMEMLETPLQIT
The experiment in a line: Co-transfection assay, RXRγ agonist activity. The test is classed as cell-based. The following applies: CV-1 cells, luciferase reporter, read-out: RXRγ Pot.

For test [4], the target named is T3, RXRβ (Mus musculus, UniProt P28704).
T3 sequence (P28704 1-520): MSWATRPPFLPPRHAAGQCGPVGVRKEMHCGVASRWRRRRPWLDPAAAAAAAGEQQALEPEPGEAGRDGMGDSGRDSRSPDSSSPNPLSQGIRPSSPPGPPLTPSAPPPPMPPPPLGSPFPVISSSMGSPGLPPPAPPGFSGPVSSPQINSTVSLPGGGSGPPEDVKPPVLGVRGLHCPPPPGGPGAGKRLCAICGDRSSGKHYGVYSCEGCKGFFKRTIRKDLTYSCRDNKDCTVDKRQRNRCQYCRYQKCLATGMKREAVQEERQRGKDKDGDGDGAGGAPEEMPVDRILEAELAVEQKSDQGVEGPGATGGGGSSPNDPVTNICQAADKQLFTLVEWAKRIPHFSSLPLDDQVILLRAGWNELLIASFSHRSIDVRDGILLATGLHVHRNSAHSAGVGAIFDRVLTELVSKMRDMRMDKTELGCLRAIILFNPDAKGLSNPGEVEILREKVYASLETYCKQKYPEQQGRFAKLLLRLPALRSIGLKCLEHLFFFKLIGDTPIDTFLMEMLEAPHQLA
Nature of the test: Receptor binding, RXRβ. The note with it: tritiated retinoid competition.

Bounds are passed on as bounds.

Regarding `CC(/C=C/CC1(c2ccc3c(c2)C(C)(C)CCC3(C)C)CC1)=C\C(=O)O` [Compound 101, (2E, 4E)-6-[1-(5,5,8,8-Tetramethyl-5,6,7,8-tetrahydronaphtha-len-2-yl)cyclopropanyl]-3-methyl hexadienoic acid], the “RXR selectivity / pan-agonist activity” value in test [1] is listed as “pan-agonists that display superior potency profiles to that of the known pan-agonist compound 9-cis retinoic acid”. The dissociation constant Kd was found to be 0.552 µM in test [2] and 0.006 µM in test [4]. Also, the EC50 in test [3] was 0.014 µM.

For `CC(/C=C/CC1(c2cc(C(C)(C)C)cc3c2CCC3(C)C)CC1)=C\C(=O)O` [Compound 107, (2E, 4E)-6-[1-(6-t-butyl-1,1-dimethyl-indan-4-yl)-cyclopropyl]-3-methyl hexadienoic acid], the “RXR selectivity / pan-agonist activity” value in test [1] is reported as “extremely potent RXR selective compounds”. The Kd in test [2] is greater than 5 µM; in test [4], 0.015 µM. Moreover, in test [3], the EC50 was found to be 0.02 µM.

Turning to `CC(/C=C/CC1(c2ccc3c(c2)C(C)(C)CCC3(C)C)CCCC1)=C\C(=O)O` [Compound 108, (2E, 4E)-6-[(5,5,8,8-Tetramethyl-5,6,7,8-tetrahydronaphtha-len-2-yl)cyclopentane-1-yl]-3-methyl hexadienoic acid], the “RXR selectivity / pan-agonist activity” value in test [1] is on record as “extremely potent RXR selective compounds”. Moreover, the Kd in test [2] is greater than 5 µM; in test [4], 0.357 µM. Further, in test [3], the EC50 is 0.066 µM.

For the origin of these results see patent publication US6005007A, “Retinoids, methods for their production and use” (priority 1997, dated 1999).
